{"source": "ChEMBL document CHEMBL5321234", "about": "“Discovery of Thieno[3,2-d]pyrimidine derivatives as potent and selective inhibitors of ataxia telangiectasia mutated and Rad3 related (ATR) kinase” (Eur J Med Chem, 2023)", "key": {"[1]": {"test": "Toxicity in ICR mouse assessed as body weight change at 2000 mg/kg, po measured after 14 days", "assay_type": "organism-based", "details": "in vivo, 336 h, time 14 day; call rule not given here"}, "LoVo [2]": {"system": "LoVo", "test": "Antitumor activity against human LoVo cells xenografted in BALB/c mouse assessed as tumor growth inhibition at 50 mg/kg, po qd administered for 21 consecutive days relative to control", "assay_type": "functional", "details": "504 h, time 21 day, read-out: TGI"}, "[3]": {"test": "Cmax in ICR mouse at 10 mg/kg, po measured upto 24 hrs by LC-MS/MS analysis", "assay_type": "ADME, organism-based", "parameters": "time < 24 hrs, dose 10 mg/kg, route po", "details": "in vivo"}, "[4]": {"test": "AUC (0 to t) in ICR mouse at 10 mg/kg, po measured upto 24 hrs by LC-MS/MS analysis", "assay_type": "ADME, organism-based", "parameters": "dose 10 mg/kg, time < 24 hrs, route po", "details": "in vivo"}, "[5]": {"test": "AUC (0 to t) in ICR mouse at 1 mg/kg, iv measured upto 24 hrs by LC-MS/MS analysis", "assay_type": "ADME, organism-based", "parameters": "dose 1 mg/kg, time < 24 hrs, route iv", "details": "in vivo"}, "[6]": {"test": "MRT (0 to infinity) in ICR mouse at 10 mg/kg, po measured upto 24 hrs by LC-MS/MS analysis", "assay_type": "ADME, organism-based", "details": "in vivo"}, "[7]": {"test": "MRT (0 to t) in ICR mouse at 1 mg/kg, iv measured upto 24 hrs by LC-MS/MS analysis", "assay_type": "ADME, organism-based", "details": "in vivo"}, "Cytochrome P450 3A4": {"target": "Cytochrome P450 3A4 (Homo sapiens, UniProt P08684)", "sequence (P08684 whole entry)": "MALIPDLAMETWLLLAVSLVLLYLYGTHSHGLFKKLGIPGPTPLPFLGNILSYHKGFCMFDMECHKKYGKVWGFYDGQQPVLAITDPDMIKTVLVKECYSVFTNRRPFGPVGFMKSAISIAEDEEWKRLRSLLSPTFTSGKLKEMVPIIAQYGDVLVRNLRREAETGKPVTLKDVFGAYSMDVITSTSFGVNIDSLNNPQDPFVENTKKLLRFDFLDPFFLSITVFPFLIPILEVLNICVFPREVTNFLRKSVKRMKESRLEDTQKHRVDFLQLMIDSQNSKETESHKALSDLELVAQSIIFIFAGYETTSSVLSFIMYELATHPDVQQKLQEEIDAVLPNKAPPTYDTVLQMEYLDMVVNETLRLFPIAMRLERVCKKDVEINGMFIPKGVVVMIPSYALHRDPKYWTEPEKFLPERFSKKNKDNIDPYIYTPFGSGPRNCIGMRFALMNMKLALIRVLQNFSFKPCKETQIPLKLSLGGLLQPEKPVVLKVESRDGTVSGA", "test": "Inhibition of CYP3A4 (unknown origin)", "assay_type": "ADME"}, "[8]": {"test": "Oral bioavailability in ICR mouse at 10 mg/kg measured upto 24 hrs by LC-MS/MS analysis", "assay_type": "ADME, organism-based", "details": "in vivo"}, "Cytochrome P450 1A2": {"target": "T1, Cytochrome P450 1A2 (Homo sapiens, UniProt P05177)", "T1 sequence (P05177 whole entry)": "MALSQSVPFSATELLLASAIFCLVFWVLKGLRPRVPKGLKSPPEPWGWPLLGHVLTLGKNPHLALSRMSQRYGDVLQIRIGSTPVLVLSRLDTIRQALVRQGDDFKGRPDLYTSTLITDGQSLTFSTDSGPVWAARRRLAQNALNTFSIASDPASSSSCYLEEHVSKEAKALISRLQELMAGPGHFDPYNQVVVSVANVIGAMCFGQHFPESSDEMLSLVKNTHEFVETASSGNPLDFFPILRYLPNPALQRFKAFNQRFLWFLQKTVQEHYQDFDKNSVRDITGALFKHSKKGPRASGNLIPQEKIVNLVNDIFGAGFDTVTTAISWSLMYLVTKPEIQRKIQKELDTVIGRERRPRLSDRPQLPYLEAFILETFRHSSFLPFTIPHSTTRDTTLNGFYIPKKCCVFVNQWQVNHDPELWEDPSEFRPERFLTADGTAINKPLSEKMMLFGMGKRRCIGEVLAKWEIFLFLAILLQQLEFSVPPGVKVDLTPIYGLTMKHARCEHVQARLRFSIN", "test": "Inhibition of CYP1A2 (unknown origin)", "assay_type": "ADME"}, "[9]": {"test": "AUC (0 to infinity) in ICR mouse at 1 mg/kg, iv measured upto 24 hrs by LC-MS/MS analysis", "assay_type": "ADME, organism-based", "parameters": "dose 1 mg/kg, time < 24 hrs, route iv", "details": "in vivo"}, "[10]": {"test": "Half life in ICR mouse at 10 mg/kg, po measured upto 24 hrs by LC-MS/MS analysis", "assay_type": "ADME, organism-based", "details": "in vivo"}, "HT-29 [11]": {"system": "HT-29", "test": "Antiproliferative activity against human HT-29 cells in presence of AZD1390 incubated for 72 hrs by CCK-8 assay", "assay_type": "functional, cell-based", "details": "HT-29, 72 h"}, "[12]": {"target": "Serine/threonine-protein kinase ATR (Homo sapiens, UniProt Q13535)", "sequence (Q13535 whole entry)": "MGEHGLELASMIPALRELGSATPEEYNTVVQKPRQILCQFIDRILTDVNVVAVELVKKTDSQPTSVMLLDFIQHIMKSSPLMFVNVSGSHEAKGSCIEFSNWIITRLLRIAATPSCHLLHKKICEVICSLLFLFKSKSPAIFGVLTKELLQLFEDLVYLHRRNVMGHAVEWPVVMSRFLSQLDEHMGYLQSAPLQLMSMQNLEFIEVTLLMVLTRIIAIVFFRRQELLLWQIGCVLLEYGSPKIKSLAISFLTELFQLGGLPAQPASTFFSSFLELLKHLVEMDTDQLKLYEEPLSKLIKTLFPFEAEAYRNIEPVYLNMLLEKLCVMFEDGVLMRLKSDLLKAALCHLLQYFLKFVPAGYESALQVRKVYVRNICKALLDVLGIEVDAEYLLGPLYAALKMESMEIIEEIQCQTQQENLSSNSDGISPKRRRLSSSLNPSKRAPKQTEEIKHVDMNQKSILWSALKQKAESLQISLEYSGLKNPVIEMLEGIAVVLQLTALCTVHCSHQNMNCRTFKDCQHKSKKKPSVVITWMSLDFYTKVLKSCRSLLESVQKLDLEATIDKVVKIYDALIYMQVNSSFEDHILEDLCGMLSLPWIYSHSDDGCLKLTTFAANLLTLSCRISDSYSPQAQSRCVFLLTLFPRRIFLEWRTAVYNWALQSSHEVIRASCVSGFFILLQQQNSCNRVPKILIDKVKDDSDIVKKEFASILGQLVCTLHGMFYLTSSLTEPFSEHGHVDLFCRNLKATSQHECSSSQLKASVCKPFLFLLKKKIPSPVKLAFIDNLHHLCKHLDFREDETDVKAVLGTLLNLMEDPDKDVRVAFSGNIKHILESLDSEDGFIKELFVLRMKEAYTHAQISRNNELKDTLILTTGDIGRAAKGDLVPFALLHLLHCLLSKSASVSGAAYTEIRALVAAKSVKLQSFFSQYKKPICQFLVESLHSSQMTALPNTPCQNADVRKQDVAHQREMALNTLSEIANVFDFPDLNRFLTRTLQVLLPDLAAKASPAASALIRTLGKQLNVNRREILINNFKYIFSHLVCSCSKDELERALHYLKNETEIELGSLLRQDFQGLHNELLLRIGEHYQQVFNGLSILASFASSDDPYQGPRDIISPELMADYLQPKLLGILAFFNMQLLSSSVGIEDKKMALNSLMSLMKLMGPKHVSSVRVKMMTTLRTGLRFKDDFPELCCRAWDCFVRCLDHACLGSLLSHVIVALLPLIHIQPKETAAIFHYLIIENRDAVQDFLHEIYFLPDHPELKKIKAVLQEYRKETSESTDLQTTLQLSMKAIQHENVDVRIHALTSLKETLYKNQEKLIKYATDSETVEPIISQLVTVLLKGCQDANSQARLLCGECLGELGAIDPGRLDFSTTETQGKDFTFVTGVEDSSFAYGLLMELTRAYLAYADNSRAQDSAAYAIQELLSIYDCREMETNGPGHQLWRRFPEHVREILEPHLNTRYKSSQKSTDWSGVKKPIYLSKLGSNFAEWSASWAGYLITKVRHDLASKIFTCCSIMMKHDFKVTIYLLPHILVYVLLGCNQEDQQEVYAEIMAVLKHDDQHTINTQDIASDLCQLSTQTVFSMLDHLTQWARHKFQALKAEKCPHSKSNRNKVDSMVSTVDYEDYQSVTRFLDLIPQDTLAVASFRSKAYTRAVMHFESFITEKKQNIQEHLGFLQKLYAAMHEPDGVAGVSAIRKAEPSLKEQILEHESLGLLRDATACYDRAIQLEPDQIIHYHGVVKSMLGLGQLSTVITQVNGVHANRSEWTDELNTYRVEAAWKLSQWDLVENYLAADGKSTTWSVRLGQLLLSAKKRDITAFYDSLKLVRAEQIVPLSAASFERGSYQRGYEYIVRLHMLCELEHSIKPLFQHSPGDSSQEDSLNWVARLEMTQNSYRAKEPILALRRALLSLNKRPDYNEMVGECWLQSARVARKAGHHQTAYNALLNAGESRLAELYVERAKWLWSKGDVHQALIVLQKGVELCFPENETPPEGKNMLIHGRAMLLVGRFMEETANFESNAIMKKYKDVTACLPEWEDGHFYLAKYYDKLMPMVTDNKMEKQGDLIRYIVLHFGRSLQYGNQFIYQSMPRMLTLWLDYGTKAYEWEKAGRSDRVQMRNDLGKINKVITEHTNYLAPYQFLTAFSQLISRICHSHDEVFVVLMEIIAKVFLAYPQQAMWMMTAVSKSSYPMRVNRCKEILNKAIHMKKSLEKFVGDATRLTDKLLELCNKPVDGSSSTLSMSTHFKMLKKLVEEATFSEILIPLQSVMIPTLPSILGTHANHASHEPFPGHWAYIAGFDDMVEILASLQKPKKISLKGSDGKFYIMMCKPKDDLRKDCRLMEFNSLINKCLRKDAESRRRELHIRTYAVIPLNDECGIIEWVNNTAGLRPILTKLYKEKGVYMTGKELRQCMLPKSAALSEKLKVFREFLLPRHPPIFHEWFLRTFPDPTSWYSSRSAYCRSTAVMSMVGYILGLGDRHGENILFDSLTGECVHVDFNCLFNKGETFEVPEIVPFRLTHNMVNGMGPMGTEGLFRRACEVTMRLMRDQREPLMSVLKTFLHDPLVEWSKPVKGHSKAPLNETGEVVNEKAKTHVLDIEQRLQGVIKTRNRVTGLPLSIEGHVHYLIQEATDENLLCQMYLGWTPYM", "test": "Inhibition of ATR (unknown origin)"}, "[13]": {"test": "Tmax in ICR mouse at 1 mg/kg, iv measured upto 24 hrs by LC-MS/MS analysis", "assay_type": "ADME, organism-based", "details": "in vivo"}, "LoVo [14]": {"system": "LoVo", "test": "Antitumor activity against human LoVo cells xenografted in BALB/c mouse assessed as tumor growth inhibition at 50 mg/kg, po bid administered for 21 consecutive days relative to control", "assay_type": "functional", "details": "504 h, time 21 day, read-out: TGI"}, "[15]": {"test": "Volume of distribution at steady state in ICR mouse at 1 mg/kg, iv measured upto 24 hrs by LC-MS/MS analysis", "assay_type": "ADME, organism-based", "details": "in vivo, iv, 1 mg/kg, 24 h"}, "[16]": {"test": "MRT (0 to t) in ICR mouse at 10 mg/kg, po measured upto 24 hrs by LC-MS/MS analysis", "assay_type": "ADME, organism-based", "details": "in vivo"}, "[17]": {"test": "Inhibition of DNA-PK (unknown origin)", "parameters": "species or system Homo sapiens"}, "[18]": {"test": "Clearance in ICR mouse at 1 mg/kg, iv measured upto 24 hrs by LC-MS/MS analysis", "assay_type": "ADME, organism-based", "details": "in vivo, iv, 1 mg/kg, 24 h"}, "[19]": {"test": "MRT (0 to infinity) in ICR mouse at 1 mg/kg, iv measured upto 24 hrs by LC-MS/MS analysis", "assay_type": "ADME, organism-based", "details": "in vivo, iv, 1 mg/kg, 24 h"}, "[20]": {"test": "AUC (0 to infinity) in ICR mouse at 10 mg/kg, po measured upto 24 hrs by LC-MS/MS analysis", "assay_type": "ADME, organism-based", "parameters": "dose 10 mg/kg, time < 24 hrs, route po", "details": "in vivo"}, "[21]": {"test": "Tmax in ICR mouse at 10 mg/kg, po measured upto 24 hrs by LC-MS/MS analysis", "assay_type": "ADME, organism-based", "details": "in vivo"}, "[22]": {"test": "Acute toxicity in ICR mouse assessed as mortality at 2000 mg/kg, po measured after 14 days", "assay_type": "organism-based", "details": "in vivo, 336 h, time 14 day"}, "HT-29 [23]": {"system": "HT-29", "test": "Antiproliferative activity against human HT-29 cells incubated for 72 hrs by CCK-8 assay", "assay_type": "functional, cell-based", "details": "HT-29, 72 h"}, "[24]": {"target": "Serine/threonine-protein kinase mTOR (Homo sapiens, UniProt P42345)", "test": "Inhibition of mTOR (unknown origin)"}, "[25]": {"test": "Half life in ICR mouse at 1 mg/kg, iv measured upto 24 hrs by LC-MS/MS analysis", "assay_type": "ADME, organism-based", "details": "in vivo"}, "[26]": {"test": "Toxicity in ICR male mouse assessed as mortality at 2000 mg/kg, po measured after 14 days", "assay_type": "organism-based", "details": "in vivo, 336 h, time 14 day"}, "[27]": {"test": "Cmax in ICR mouse at 1 mg/kg, iv measured upto 24 hrs by LC-MS/MS analysis", "assay_type": "ADME, organism-based", "parameters": "time < 24 hrs, dose 1 mg/kg, route iv", "details": "in vivo"}, "[28]": {"test": "Initial plasma concentration in ICR mouse at 1 mg/kg, iv measured upto 24 hrs by LC-MS/MS analysis", "assay_type": "ADME, organism-based"}, "LoVo [29]": {"system": "LoVo", "test": "Antiproliferative activity against human LoVo cells incubated for 72 hrs by CCK-8 assay", "assay_type": "functional, cell-based"}, "[30]": {"test": "Toxicity in po dosed ICR mouse assessed as mortality measured after 14 days", "assay_type": "organism-based", "details": "in vivo, time 14 day"}}}
{"smiles": "CNc1nc2ccccc2n1-c1nc(N2CCOC[C@H]2C)c2scc(S(C)(=O)=O)c2n1", "values": [{"measurement": "Activity", "setting": "[1]", "value": "Non-Toxic"}, {"measurement": "inhibition in vivo at 50 mg/kg", "setting": "LoVo [2]", "value": 32, "unit": "%"}, {"measurement": "Cmax", "setting": "[3]", "value": 1270, "unit": "ng/mL"}, {"measurement": "AUC(0-t) at 24 h", "setting": "[4]", "value": 4300, "unit": "ng·h/mL"}, {"measurement": "AUC(0-t) at 24 h", "setting": "[5]", "value": 954, "unit": "ng·h/mL"}, {"measurement": "MRT inf", "setting": "[6]", "value": 6.2, "unit": "h"}, {"measurement": "MRT last at 24 h", "setting": "[7]", "value": 0.89, "unit": "h"}, {"measurement": "inhibition (INH)", "setting": "Cytochrome P450 3A4", "value": "Not Active"}, {"measurement": "bioavailability", "setting": "[8]", "value": 46, "unit": "%"}, {"measurement": "inhibition (INH)", "setting": "Cytochrome P450 1A2", "value": "Not Active"}, {"measurement": "AUC(0-inf)", "setting": "[9]", "value": 962, "unit": "ng·h/mL"}, {"measurement": "half-life", "setting": "[10]", "value": 5.06, "unit": "h"}, {"measurement": "IC50", "setting": "HT-29 [11]", "value": 3, "unit": "nM"}, {"measurement": "IC50", "setting": "[12]", "value": 1.5, "unit": "nM"}, {"measurement": "Tmax", "setting": "[13]", "value": 4.8, "unit": "min"}, {"measurement": "inhibition in vivo at 50 mg/kg", "setting": "LoVo [14]", "value": 55, "unit": "%"}, {"measurement": "Vdss", "setting": "[15]", "value": 2.371, "unit": "L/kg"}, {"measurement": "MRT last at 24 h", "setting": "[16]", "value": 5.3, "unit": "h"}, {"measurement": "IC50", "setting": "[17]", "value": 25.3, "unit": "nM"}, {"measurement": "CL", "setting": "[18]", "value": 17.35, "unit": "mL/min/kg"}, {"measurement": "MRT", "setting": "[19]", "value": 0.97, "unit": "h"}, {"measurement": "AUC(0-inf)", "setting": "[20]", "value": 4420, "unit": "ng·h/mL"}, {"measurement": "Tmax", "setting": "[21]", "value": 0.25, "unit": "h"}, {"measurement": "Activity", "setting": "[22]", "value": "Toxic"}, {"measurement": "IC50", "setting": "HT-29 [23]", "value": 161, "unit": "nM"}, {"measurement": "IC50", "setting": "[24]", "value": 58.8, "unit": "nM"}, {"measurement": "half-life", "setting": "[25]", "value": 1.56, "unit": "h"}, {"measurement": "Activity", "setting": "[26]", "value": "Toxic"}, {"measurement": "Cmax", "setting": "[27]", "value": 1140, "unit": "ng/mL"}, {"measurement": "C0 at 24 h", "setting": "[28]", "value": 1310, "unit": "ng/mL"}, {"measurement": "IC50", "setting": "LoVo [29]", "value": 73, "unit": "nM"}, {"measurement": "LD50 at 336 h", "setting": "[30]", "value": 2000, "unit": "mg/kg"}]}
